Measured values taken from patent publication US20120329653A1, “SYNERGISTIC HERBICIDAL COMPOSITION CONTAINING PENOXSULAM AND PENDIMETHALIN” (DOW AGROSCIENCES LLC, priority 2011, published 2012).

Columns and labels:
Type in all cases: in vivo
[1] = test system: Alopecurus myosuroides (blackgrass); assay: Preemergence field trial in perennial tree crops, % weed control; details: 206 days after application
Procedure: (§1) Field trials were conducted in rice and tree crops using standard herbicide small plot research methodology. Plot size was typical for small plot research, varying from 2 to 4 meters (m) wide by 6.7 to 10 meters long. There were 3 to 4 replicates per treatment. Soil types ranged from medium to fine soil texture. Rice or cereal crops were sown by mechanical direct dry seeding as per normal local cultural practices. The rice or cereal crop was grown using normal cultural practices for fertilization, watering, flooding and maintenance to ensure good growth of the crop and the weeds.
(§2) Treatments were applied by backpack sprayer using either compressed air or CO2, at spray pressures from 124 to 276 kilopascals (kPa). Spray tips were typically Flat Fan Teejet nozzles, such as TJ8002 to TJ110015 or XR11001. Spray volumes varied from 93.5 to 250 liters per hectare (L/ha). Penoxsulam was applied as the commercial products Grasp SC (240 gr ai/L) or Clipper 20 OD (20 grams ai/L); pendimethalin was applied as the commercial product Prowl EC.
(§3) For each treatment, the appropriate formulated product amount to treat the plot area, to achieve the desired application rate, based on unit area of application (hectare), was calculated, measured, and mixed in water prior to applying with the backpack sprayer. Treatments were rated as compared to the untreated control plots.
(§4) The treated plots and control plots were rated blind at various intervals after application. Ratings were based of Percent (%) Visual weed control, where 0 corresponds to no injury and 100 corresponds to complete kill.
(§5) Colby's equation was used to determine the herbicidal effects expected from the mixtures (Colby, S. R. Calculation of the synergistic and antagonistic response of herbicide combinations. Weeds 1967, 15, 20-22).
(§6) The following equation was used to calculate the expected activity of mixtures containing two active ingredients, A and B:
(§7) A=observed efficacy of active ingredient A at the same concentration as used in the mixture;
(§8) B=observed efficacy of active ingredient B at the same concentration as used in the mixture.

[2] = test system: Ischaemum rugosum (saramollagrass); assay: Preemergence field trial in seeded rice, % visual weed control; details: 60 days after application
Procedure: as §1, §2, §3, §4, §5, §6, §7, §8

[3] = test system: Ipomoea spp. (morningglory); assay: as above; details: Texas, USA, 22 to 54 days after application
Procedure: as §1, §2, §3, §4, §5, §6, §7, §8

[4] = test system: Alternanthera philoxeroides (alligatorweed); assay: as above; details: USA, 22 to 54 days after application
Procedure: as §1, §2, §3, §4, §5, §6, §7, §8

[5] = test system: Echinochloa colonum (junglerice); assay: as above; details: 60 days after application
Procedure: as §1, §2, §3, §4, §5, §6, §7, §8

SEBEX = assay: as above; details: 22 to 54 days after application
Procedure: as §1, §2, §3, §4, §5, §6, §7, §8

SMILES | % Control ALOMY Obs ([1]; pendimethalin 500 gai/ha) | % Control ALOMY Obs ([1]; pendimethalin 1000 gai/ha) | % Visual Control ISCRU Obs ([2]; pendimethalin 750 gai/ha) | % Visual Control IPOSS Obs ([3]; pendimethalin 1100 gai/ha) | % Visual Control ALRPH Obs ([4]; pendimethalin 1100 gai/ha, Arkansas) | % Visual Control ALRPH Obs ([4]; pendimethalin 1100 gai/ha, Texas) | % Visual Control ECHCO Obs ([5]; pendimethalin 750 gai/ha) | % Visual Control SEBEX Obs (SEBEX; pendimethalin 1100 gai/ha) | % Control ALOMY Obs ([1]; penoxsulam 10 gai/ha) | % Control ALOMY Obs ([1]; penoxsulam 20 gai/ha) | % Control ALOMY Obs ([1]; penoxsulam 30 gai/ha) | % Control ALOMY Obs ([1]; penoxsulam 40 gai/ha) | % Visual Control ISCRU Obs ([2]; penoxsulam 30 gai/ha) | % Visual Control IPOSS Obs ([3]; penoxsulam 20 gai/ha) | % Visual Control ALRPH Obs ([4]; penoxsulam 20 gai/ha, Arkansas) | % Visual Control ALRPH Obs ([4]; penoxsulam 20 gai/ha, Texas) | % Visual Control ECHCO Obs ([5]; penoxsulam 20 gai/ha) | % Visual Control SEBEX Obs (SEBEX; penoxsulam 40 gai/ha)
CCC(CC)Nc1c([N+](=O)[O-])cc(C)c(C)c1[N+](=O)[O-] [Pendimethalin, N-(1-ethylpropyl)-3,4-dimethyl-2,6-dinitrobenzenamine] | 0% | 7% | 57% | 35% | 0% | 0% | 55% | 14% |  |  |  |  |  |  |  |  |  | 
COc1cnc(OC)n2nc(NS(=O)(=O)c3c(OCC(F)F)cccc3C(F)(F)F)nc12 [Penoxsulam] |  |  |  |  |  |  |  |  | 0% | 20% | 43% | 50% | 35% | 21% | 43% | 74% | 25% | 40%
